The experiment has as its system MDA-MB-231 breast cancer cells. Briefly: In vitro antitumor activity against breast cancer cell line MDA-MB-231. The experiment is classed as cell-based. The following applies: Homo sapiens, MDA-MB-231, read-out: IC50 (μM) MDA-MB-231.

For one compound, IC50 results are on record in PMC9635984 (Bioorganic & medicinal chemistry letters, 2022).

For orientation: IC50 means the midpoint of a concentration-inhibition curve.

For the compound `Cn1c(CCCC(=O)O)nc2cc(N(CCCl)CCCl)ccc21` [Bendamustiune, bendamustine], the IC50 was found to be 13.3 µM.
